In the supplement of paper PMC10307832:

How the values were obtained:
Experiment in all cases: relative viability (nuclei count vs DMSO), 5 days (fraction); higher = more cells survive
Shikonin + Foretinib = compound: CC(C)=CC[C@@H](O)C1=CC(=O)c2c(O)ccc(O)c2C1=O [Shikonin] + COc1cc2c(Oc3ccc(NC(=O)C4(C(=O)Nc5ccc(F)cc5)CC4)cc3F)ccnc2cc1OCCCN1CCOCC1 [Foretinib] (partner 0.25 µM)
Method in brief: (§1)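 Relative viability divides the nuclei count in treated wells by that in vehicle wells. Lung cancer cell lines were seeded in 1536-well plates, dosed by pin tool the next day, and fixed and stained after 5 days in one step with final 0.05% Triton X-100, 1% formaldehyde and 1 ug/ml Hoechst. Dosing was a single drug or a fixed anchor-drug dose plus five library-drug doses (not always all listed) in √10 steps, and values are medians of duplicate plates imaged at 4×.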

Shikonin + Crizotinib = compound: CC(C)=CC[C@@H](O)C1=CC(=O)c2c(O)ccc(O)c2C1=O [Shikonin] + C[C@@H](Oc1cc(-c2cnn(C3CCNCC3)c2)cnc1N)c1c(Cl)ccc(F)c1Cl [Crizotinib] (partner 1 µM)
Method in brief: as §1

[1] = compound: CC(C)N(CCCNC(=O)Nc1ccc(C(C)(C)C)cc1)C[C@H]1O[C@@H](n2ccc3c(N)ncnc32)[C@H](O)[C@@H]1O + CC(=O)Nc1cccc(-n2c(=O)n(C3CC3)c(=O)c3c(Nc4ccc(I)cc4F)n(C)c(=O)c(C)c32)c1 [Trametinib] (partner 0.02 µM)
Method in brief: as §1

[2] = compound: CC(C)N(CCCNC(=O)Nc1ccc(C(C)(C)C)cc1)C[C@H]1O[C@@H](n2ccc3c(N)ncnc32)[C@H](O)[C@@H]1O + CS(=O)(=O)N1CCN(Cc2cc3nc(-c4cccc5[nH]ncc45)nc(N4CCOCC4)c3s2)CC1 [Pictilisib] (partner 1 µM)
Method in brief: as §1

NCI-H441
relative viability (Shikonin + Foretinib; first compound 0.01 µM): 0.941 | relative viability (Shikonin + Foretinib; first compound 0.1 µM): 1.17 | relative viability (Shikonin + Foretinib; first compound 0.3162 µM): 0.849 | relative viability (Shikonin + Foretinib; first compound 1 µM): 1.04 | relative viability (Shikonin + Crizotinib; first compound 0.01 µM): 0.921 | relative viability (Shikonin + Crizotinib; first compound 0.1 µM): 0.782 | relative viability (Shikonin + Crizotinib; first compound 0.3162 µM): 0.887 | relative viability (Shikonin + Crizotinib; first compound 1 µM): 0.771 | relative viability ([1]; first compound 0.08 µM): 0.407 | relative viability ([1]; first compound 0.253 µM): 0.432 | relative viability ([1]; first compound 2.53 µM): 0.498 | relative viability ([1]; first compound 8 µM): 0.474 | relative viability ([2]; first compound 0.08 µM): 0.442 | relative viability ([2]; first compound 0.253 µM): 0.423 | relative viability ([2]; first compound 0.8 µM): 0.361 | relative viability ([2]; first compound 2.53 µM): 0.539 | relative viability ([2]; first compound 8 µM): 0.47

PC-3 [JPC-3]
relative viability (Shikonin + Foretinib; first compound 0.01 µM): 1.06 | relative viability (Shikonin + Foretinib; first compound 0.1 µM): 1.16 | relative viability (Shikonin + Foretinib; first compound 0.3162 µM): 1.1 | relative viability (Shikonin + Foretinib; first compound 1 µM): 1.1 | relative viability (Shikonin + Crizotinib; first compound 0.01 µM): 1.03 | relative viability (Shikonin + Crizotinib; first compound 0.1 µM): 1.14 | relative viability (Shikonin + Crizotinib; first compound 0.3162 µM): 1.03 | relative viability (Shikonin + Crizotinib; first compound 1 µM): 0.986 | relative viability ([1]; first compound 0.08 µM): 0.664 | relative viability ([1]; first compound 0.253 µM): 0.722 | relative viability ([1]; first compound 2.53 µM): 0.715 | relative viability ([1]; first compound 8 µM): 0.683 | relative viability ([2]; first compound 0.08 µM): 0.757 | relative viability ([2]; first compound 0.253 µM): 0.677 | relative viability ([2]; first compound 0.8 µM): 0.658 | relative viability ([2]; first compound 2.53 µM): 0.656 | relative viability ([2]; first compound 8 µM): 0.727

NCI-H1648
relative viability ([1]; first compound 0.08 µM): 0.424 | relative viability ([1]; first compound 0.253 µM): 0.522 | relative viability ([1]; first compound 0.8 µM): 0.406 | relative viability ([1]; first compound 2.53 µM): 0.419 | relative viability ([1]; first compound 8 µM): 0.455

NCI-H1792
relative viability (Shikonin + Crizotinib; first compound 0.01 µM): 1.1 | relative viability (Shikonin + Crizotinib; first compound 0.1 µM): 0.796 | relative viability (Shikonin + Crizotinib; first compound 0.3162 µM): 1.03 | relative viability (Shikonin + Crizotinib; first compound 1 µM): 1.14 | relative viability ([1]; first compound 0.08 µM): 0.397 | relative viability ([1]; first compound 0.8 µM): 0.372 | relative viability ([1]; first compound 2.53 µM): 0.419 | relative viability ([1]; first compound 8 µM): 0.29 | relative viability ([2]; first compound 0.08 µM): 0.26 | relative viability ([2]; first compound 0.253 µM): 0.245 | relative viability ([2]; first compound 0.8 µM): 0.219 | relative viability ([2]; first compound 2.53 µM): 0.254 | relative viability ([2]; first compound 8 µM): 0.267

HCC-44
relative viability (Shikonin + Crizotinib; first compound 0.01 µM): 0.933 | relative viability (Shikonin + Crizotinib; first compound 0.1 µM): 0.86 | relative viability (Shikonin + Crizotinib; first compound 0.3162 µM): 0.891 | relative viability (Shikonin + Crizotinib; first compound 1 µM): 0.825 | relative viability ([1]; first compound 0.08 µM): 1.11 | relative viability ([1]; first compound 0.253 µM): 1.09 | relative viability ([1]; first compound 0.8 µM): 0.936 | relative viability ([1]; first compound 2.53 µM): 1.11 | relative viability ([1]; first compound 8 µM): 1.18 | relative viability ([2]; first compound 0.08 µM): 0.542 | relative viability ([2]; first compound 0.253 µM): 0.644 | relative viability ([2]; first compound 0.8 µM): 0.488 | relative viability ([2]; first compound 2.53 µM): 0.734 | relative viability ([2]; first compound 8 µM): 0.578

NCI-H1793
relative viability (Shikonin + Foretinib; first compound 0.01 µM): 0.783 | relative viability (Shikonin + Foretinib; first compound 0.1 µM): 0.737 | relative viability (Shikonin + Foretinib; first compound 0.3162 µM): 0.792 | relative viability (Shikonin + Foretinib; first compound 1 µM): 0.59 | relative viability ([1]; first compound 0.08 µM): 0.394 | relative viability ([1]; first compound 0.8 µM): 0.367 | relative viability ([1]; first compound 2.53 µM): 0.446 | relative viability ([1]; first compound 8 µM): 0.422 | relative viability ([2]; first compound 0.08 µM): 0.296 | relative viability ([2]; first compound 0.8 µM): 0.369 | relative viability ([2]; first compound 2.53 µM): 0.281 | relative viability ([2]; first compound 8 µM): 0.35

A549
relative viability (Shikonin + Foretinib; first compound 0.01 µM): 1.05 | relative viability (Shikonin + Foretinib; first compound 0.1 µM): 1.03 | relative viability (Shikonin + Foretinib; first compound 0.3162 µM): 1.16 | relative viability (Shikonin + Foretinib; first compound 1 µM): 1.11 | relative viability (Shikonin + Crizotinib; first compound 0.01 µM): 0.748 | relative viability (Shikonin + Crizotinib; first compound 0.1 µM): 0.932 | relative viability (Shikonin + Crizotinib; first compound 0.3162 µM): 0.872 | relative viability (Shikonin + Crizotinib; first compound 1 µM): 0.705 | relative viability ([2]; first compound 0.08 µM): 0.513 | relative viability ([2]; first compound 0.253 µM): 0.501 | relative viability ([2]; first compound 0.8 µM): 0.53 | relative viability ([2]; first compound 2.53 µM): 0.52 | relative viability ([2]; first compound 8 µM): 0.469

NCI-H1563
relative viability (Shikonin + Foretinib; first compound 0.01 µM): 0.935 | relative viability (Shikonin + Foretinib; first compound 0.1 µM): 0.848 | relative viability (Shikonin + Foretinib; first compound 0.3162 µM): 1.06 | relative viability (Shikonin + Foretinib; first compound 1 µM): 0.902 | relative viability (Shikonin + Crizotinib; first compound 0.01 µM): 0.891 | relative viability (Shikonin + Crizotinib; first compound 0.1 µM): 0.845 | relative viability (Shikonin + Crizotinib; first compound 0.3162 µM): 0.751 | relative viability (Shikonin + Crizotinib; first compound 1 µM): 0.622 | relative viability ([2]; first compound 0.08 µM): 0.678 | relative viability ([2]; first compound 0.253 µM): 0.607 | relative viability ([2]; first compound 0.8 µM): 0.616 | relative viability ([2]; first compound 2.53 µM): 0.679 | relative viability ([2]; first compound 8 µM): 0.636

NCI-H1395
relative viability (Shikonin + Foretinib; first compound 0.01 µM): 0.955 | relative viability (Shikonin + Foretinib; first compound 0.1 µM): 0.949 | relative viability (Shikonin + Foretinib; first compound 0.3162 µM): 0.948 | relative viability (Shikonin + Foretinib; first compound 1 µM): 0.939 | relative viability ([1]; first compound 0.08 µM): 0.956 | relative viability ([1]; first compound 0.253 µM): 0.986 | relative viability ([1]; first compound 0.8 µM): 0.979 | relative viability ([1]; first compound 2.53 µM): 1.01 | relative viability ([1]; first compound 8 µM): 1.04 | relative viability ([2]; first compound 0.08 µM): 0.595 | relative viability ([2]; first compound 0.253 µM): 0.55 | relative viability ([2]; first compound 2.53 µM): 0.59 | relative viability ([2]; first compound 8 µM): 0.738

NCI-H522
relative viability ([1]; first compound 0.08 µM): 0.633 | relative viability ([1]; first compound 0.253 µM): 0.763 | relative viability ([1]; first compound 0.8 µM): 0.824 | relative viability ([1]; first compound 2.53 µM): 0.798 | relative viability ([1]; first compound 8 µM): 0.845

IA-LM
relative viability (Shikonin + Foretinib; first compound 0.01 µM): 1.14 | relative viability (Shikonin + Foretinib; first compound 0.1 µM): 1.42 | relative viability (Shikonin + Foretinib; first compound 0.3162 µM): 1.32 | relative viability (Shikonin + Foretinib; first compound 1 µM): 1.15 | relative viability (Shikonin + Crizotinib; first compound 0.01 µM): 1.06 | relative viability (Shikonin + Crizotinib; first compound 0.3162 µM): 1.11 | relative viability (Shikonin + Crizotinib; first compound 1 µM): 0.667 | relative viability ([2]; first compound 0.08 µM): 0.27 | relative viability ([2]; first compound 0.253 µM): 0.347 | relative viability ([2]; first compound 0.8 µM): 0.447 | relative viability ([2]; first compound 2.53 µM): 0.398 | relative viability ([2]; first compound 8 µM): 0.378

NCI-H1703
relative viability (Shikonin + Foretinib; first compound 0.01 µM): 0.361 | relative viability (Shikonin + Foretinib; first compound 0.1 µM): 0.401 | relative viability (Shikonin + Foretinib; first compound 0.3162 µM): 0.319 | relative viability (Shikonin + Foretinib; first compound 1 µM): 0.329 | relative viability (Shikonin + Crizotinib; first compound 0.01 µM): 0.873 | relative viability (Shikonin + Crizotinib; first compound 0.1 µM): 0.671 | relative viability (Shikonin + Crizotinib; first compound 0.3162 µM): 0.633 | relative viability (Shikonin + Crizotinib; first compound 1 µM): 0.512 | relative viability ([2]; first compound 0.08 µM): 0.223 | relative viability ([2]; first compound 0.253 µM): 0.247 | relative viability ([2]; first compound 0.8 µM): 0.257 | relative viability ([2]; first compound 2.53 µM): 0.244 | relative viability ([2]; first compound 8 µM): 0.24

SW 900
relative viability (Shikonin + Foretinib; first compound 0.01 µM): 1.04 | relative viability (Shikonin + Foretinib; first compound 0.1 µM): 0.987 | relative viability (Shikonin + Foretinib; first compound 0.3162 µM): 0.915 | relative viability (Shikonin + Foretinib; first compound 1 µM): 0.801 | relative viability ([1]; first compound 0.08 µM): 0.734 | relative viability ([1]; first compound 0.253 µM): 0.78 | relative viability ([1]; first compound 2.53 µM): 0.766 | relative viability ([1]; first compound 8 µM): 0.717
